Among the test systems are HOP-92 NSCLC; MALME-3M melanoma; NCI-H522 lung; OVCAR-4 ovarian; OVCAR-5 ovarian; SR leukemia; U251 CNS; UO-31 renal; DMS 273 small cell lung; M19-MEL melanoma; SN12K1 renal; SNB-78 CNS.
Assay in all cases: growth of human tumour cells (NCI), 48 h

This is an account of results in PubChem BioAssay (NCI).

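Method: 48-hour compound exposure of cells in 96-well plates, five concentrations, linear interpolation of endpoints. At the GI50, growth is halved. TGI: total growth inhibition.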

`CN(C)CCn1c(=O)c2ccc(NCCN3CCNCC3)c3c(=O)c4ccccc4n(c1=O)c23`: the TGI came to 9.59 µM with HOP-92 NSCLC; 17 µM with MALME-3M melanoma; 10 µM in the assay on NCI-H522 lung; 32.3 µM in the assay with OVCAR-4 ovarian; 42.1 µM with OVCAR-5 ovarian; 0.322 µM in the assay with SR leukemia. Further, the values for the TGI in the assay with U251 CNS and with UO-31 renal were 24.8 µM and 17.9 µM, respectively.
In the case of `CC1(C)Cc2nc3c(cc2C(=O)C1C=N/C(C#N)=C(\N)C#N)C(=O)C(C=N/C(C#N)=C(\N)C#N)C(C)(C)C3` (stereo unspecified), the TGI in the assay on HOP-92 NSCLC was 3.33 µM; with MALME-3M melanoma, 2.84 µM; with NCI-H522 lung, 2.3 µM; with OVCAR-4 ovarian it was greater than 100 µM; with OVCAR-5 ovarian, 5.48 µM; with SR leukemia, greater than 100 µM. For the same compound, the TGI came out at 3.14 µM with U251 CNS and 3.51 µM in the assay on UO-31 renal.
As to `CC(C)NC(=O)OCc1c(CO)c2c(n1C)-c1ccccc1CC2`, the TGI in the assay with DMS 273 small cell lung was 62.4 µM; with HOP-92 NSCLC, 53.7 µM; in the assay on M19-MEL melanoma it was 59.3 µM; in the assay with MALME-3M melanoma it was greater than 31.6 µM; in the assay with NCI-H522 lung, 31.3 µM; in the assay with OVCAR-4 ovarian it was 73 µM. Further, the TGI was greater than 100 µM with OVCAR-5 ovarian; 35.1 µM in the assay with SN12K1 renal; 86.7 µM with SNB-78 CNS; greater than 61.4 µM in the assay with U251 CNS; 71.4 µM with UO-31 renal.
`COC(=O)c1ccc(N=NN(C)COc2ccc(Br)cc2)cc1`: the TGI with DMS 273 small cell lung, in the assay with HOP-92 NSCLC, with M19-MEL melanoma, in the assay on MALME-3M melanoma, with NCI-H522 lung and with OVCAR-4 ovarian was greater than 100 µM throughout. Besides, the TGI in the assay on OVCAR-5 ovarian, with SN12K1 renal, with SNB-78 CNS, in the assay with U251 CNS and in the assay with UO-31 renal was greater than 100 µM in each case.
Take `Cc1cc(/C=C/c2cc[n+](C)c3ccccc23)c(O)c2ncccc12`: the TGI stood at 10.4 µM in the assay with DMS 273 small cell lung; 17 µM in the assay on HOP-92 NSCLC; 8.52 µM in the assay on M19-MEL melanoma; 12.4 µM in the assay with MALME-3M melanoma; 11.6 µM in the assay on NCI-H522 lung; 32.4 µM in the assay with OVCAR-4 ovarian. Besides, the TGI was 16 µM in the assay on OVCAR-5 ovarian; 27.1 µM with SNB-78 CNS; 4.3 µM in the assay on SR leukemia; 13.5 µM with U251 CNS; 21.3 µM in the assay with UO-31 renal.
For the compound `C=CCN(C(=O)OC(C)(C)C)[C@H](C)C(=O)N[C@@H](C)C(=O)OC`, the TGI with HOP-92 NSCLC, in the assay on MALME-3M melanoma, in the assay with NCI-H522 lung, in the assay on OVCAR-4 ovarian, with OVCAR-5 ovarian and in the assay on SR leukemia was greater than 100 µM in each case. Moreover, the TGI with U251 CNS and in the assay with UO-31 renal was greater than 100 µM each time.
As for `O=C(Nc1ccc(-n2ccc3c(NC(=O)c4ccccc4)ncnc32)cc1)Nc1ccc(Cl)c(Cl)c1`, the GI50 in the assay with HOP-92 NSCLC was 1.12 µM; in the assay on MALME-3M melanoma, 3.39 µM; with NCI-H522 lung, 1.28 µM; with OVCAR-4 ovarian it was 0.887 µM; in the assay with OVCAR-5 ovarian, 5.62 µM; in the assay on SR leukemia, 1.17 µM. Further, the GI50 in the assay with U251 CNS is 0.942 µM; in the assay on UO-31 renal it was 7.16 µM. For the same compound, the TGI came out at 6.94 µM with HOP-92 NSCLC; 12 µM in the assay with MALME-3M melanoma; 7.34 µM in the assay with NCI-H522 lung; 1.8 µM in the assay with OVCAR-4 ovarian; 13.2 µM in the assay with OVCAR-5 ovarian; 2.7 µM in the assay on SR leukemia. Besides, the TGI in the assay with U251 CNS stood at 2.29 µM; in the assay on UO-31 renal it was 14.8 µM.
`Cc1c(N2CCN(C)CC2)nc2ccc(Cl)cc2c1-c1ccccc1`: the TGI is 32.1 µM in the assay on DMS 273 small cell lung; 35.7 µM in the assay with MALME-3M melanoma; 38.6 µM with NCI-H522 lung; 36.9 µM in the assay on OVCAR-4 ovarian; 39.8 µM in the assay on SNB-78 CNS; 39.2 µM in the assay with SR leukemia. For the same compound, the results for the TGI in the assay with U251 CNS and in the assay on UO-31 renal were 33.1 µM and 36.1 µM, respectively.
In the case of `CN(/N=C/c1cccc2cccnc12)c1ccc(Cl)cc1[N+](=O)[O-]`, the TGI with HOP-92 NSCLC, in the assay on MALME-3M melanoma, with NCI-H522 lung, with OVCAR-4 ovarian, in the assay with OVCAR-5 ovarian and with SR leukemia was greater than 100 µM each time. For the same compound, the TGI with U251 CNS and in the assay on UO-31 renal was greater than 100 µM each time.
In the case of `Cc1ccc(O)c(C2=CC(c3cccc(Cl)c3)SC(N)=N2)c1` (stereo unspecified), the TGI with HOP-92 NSCLC amounted to 42.9 µM; in the assay with MALME-3M melanoma, 62.5 µM; in the assay on NCI-H522 lung it was 34 µM; with OVCAR-4 ovarian it was 23.6 µM; with OVCAR-5 ovarian, 73.5 µM; in the assay with SR leukemia, 46.5 µM. Besides, the TGI in the assay with U251 CNS came out at 34.4 µM; in the assay with UO-31 renal, 69.1 µM.
With `CC(=O)Nc1c(C)cc2c(nc3n2CCC3OC(C)=O)c1[N+](=O)[O-]` (stereo unspecified), the TGI with HOP-92 NSCLC, in the assay with MALME-3M melanoma, in the assay with NCI-H522 lung, with OVCAR-4 ovarian, with OVCAR-5 ovarian and in the assay with SR leukemia was greater than 100 µM each time. In addition, the TGI in the assay with U251 CNS and with UO-31 renal was greater than 100 µM throughout.
Consider `COC1C(O)C(n2ncc3c(SC)nc(SC)nc32)OC1C(O)CO` (stereo unspecified), for which the TGI in the assay on DMS 273 small cell lung, with HOP-92 NSCLC, in the assay with M19-MEL melanoma, with MALME-3M melanoma, in the assay with NCI-H522 lung and with OVCAR-4 ovarian was greater than 100 µM in each case. The TGI in the assay on OVCAR-5 ovarian is greater than 100 µM; in the assay on SN12K1 renal it was greater than 67.4 µM; with SNB-78 CNS, greater than 100 µM; in the assay on U251 CNS, greater than 100 µM; in the assay on UO-31 renal it was greater than 100 µM.
